Blank lines part the entries; values can stand above or below the compound they belong to.
Tested on: PDE1
Test: In vitro HTRF PDE1 inhibition assay
Assay type: biochemical
Details: HTRF cGMP assay, 100 nM cyclic GMP, PDE (1A3, 1B or 1C) with calmodulin, 45 minutes at 37° C.; isoform of the tabulated values not stated
In short: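 Activities are given as IC50 bands (<1, 1-10, >10 μM) derived from a 665/615 nm time-resolved FRET readout after d2-cGMP/anti-cGMP cryptate detection. Enzymes PDE1A3, 1B or 1C plus calmodulin were incubated 45 min at 37 °C with 100 nM cGMP, 1% DMSO, CaCl2/MgCl2 Tris buffer pH 7.4.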

Compound: COc1ccc(CN2CCn3c(nc4c(c(C)nn4C4CCCC4)c3=O)C2)cc1 [Compound I-112, 1-Cyclopentyl-8-(4-methoxybenzyl)-3-methyl-6,7,8,9-tetrahydropyrazino[1,2-d]pyrazolo[3,4-d]pyrimidin-4(1H)-one]
- IC50: > 10 µM

Compound: CC1NCCn2c1nc1c(cnn1C(C)C)c2=O (racemic) [Compound I-4, (±)-1-Isopropyl-9-methyl-6,7,8,9-tetrahydropyrazino[1,2-a]pyrazolo[3,4-d]pyrimidin-4(1H)-one]
- IC50: > 10 µM

Compound: CC(C)Cc1nnc2c(=O)n3c(nn12)CN(Cc1ccccn1)CC3 [Compound I-224, 3-Isobutyl-7-(pyridin-2-ylmethyl)-8,9-dihydro-6H-pyrazino[2,1-c][1,2,4]triazolo[3,4-f][1,2,4]triazin-11(7H)-one]
- IC50: 1 to 10 µM

Compound: CC(C)n1ncc2c(=O)n3c(nc21)CN(c1ccccc1Cl)CC3 [Compound I-85, 8-(2-Chlorophenyl)-1-isopropyl-6,7,8,9-tetrahydropyrazino[1,2-a]pyrazolo[3,4-d]pyrimidin-4(1H)-one]
- IC50: 1 to 10 µM

Compound: CC(C)n1ncc2c(=O)n3c(nc21)C(Cc1ccccc1)NCC3 (racemic) [Compound I-8, (±)-9-Benzyl-1-isopropyl-6,7,8,9-tetrahydropyrazino[1,2-a]pyrazolo[3,4-d]pyrimidin-4(1H)-one]
- IC50: 1 to 10 µM

Compound: CC(C)n1ncc2c(=O)n3c(nc21)CN(Cc1ccncc1)CC3 [Compound I-136, 1-Isopropyl-8-(pyridin-4-ylmethyl)-6,7,8,9-tetrahydropyrazino[1,2-a]pyrazolo[3,4-d]pyrimidin-4(1H)-one]
- IC50: 1 to 10 µM

Compound: Cc1cnc(CN2CCn3c(nn4c(C(C)C)ncc4c3=O)C2)cn1 [Compound I-208, 3-Isopropyl-7-((5-methylpyrazin-2-yl)methyl)-8,9-dihydro-6H-imidazo[5,1-f]pyrazino[2,1-c][1,2,4]triazin-11(7H)-one]
- IC50: 1 to 10 µM

Compound: O=c1c2cn[nH]c2nc2n1CCN(Cc1ccccc1)C2Cc1ccccc1 (racemic) [Compound I-34, (±)-8,9-Dibenzyl-6,7,8,9-tetrahydropyrazino[1,2-a]pyrazolo[3,4-d]pyrimidin-4(1H)-one]
- IC50: > 10 µM

Compound: CC1NCCn2c1nc1c(cnn1C)c2=O (racemic) [Compound I-3, (±)-1,9-Dimethyl-6,7,8,9-tetrahydropyrazino[1,2-a]pyrazolo[3,4-d]pyrimidin-4(1H)-one]
- IC50: > 10 µM

Compound: CC1Cn2c(nc3c(cnn3C(C)C)c2=O)CN1c1ccc(Cl)cc1 (racemic) [Compound I-150, (±)-8-(4-Chlorophenyl)-1-isopropyl-7-methyl-6,7,8,9-tetrahydropyrazino[1,2-a]pyrazolo[3,4-d]pyrimidin-4(1H)-one]
- IC50: 1 to 10 µM

Compound: O=c1c2cnn(-c3ccccc3)c2nc2n1CCNC2 [Compound I-2, 1-Phenyl-6,7,8,9-tetrahydropyrazino[1,2-a]pyrazolo[3,4-d]pyrimidin-4(1H)-one]
- IC50: > 10 µM

Compound: CC(C)c1nn(C)c2c(=O)n3c(nc12)CN(Cc1ccccc1)CC3 [Compound I-46, 6-Benzyl-3-isopropyl-1-methyl-5,6,7,8-tetrahydropyrazino[1,2-a]pyrazolo[4,3-d]pyrimidin-10(1H)-one]
- IC50: > 10 µM

Compound: CC(C)n1ncc2c(=O)n3c(nc21)CN(C)CC3 [Compound I-18, 1-Isopropyl-8-methyl-6,7,8,9-tetrahydropyrazino[1,2-a]pyrazolo[3,4-d]pyrimidin-4(1H)-one]
- IC50: > 10 µM

Compound: O=c1c2cnn(C3CCOCC3)c2nc2n1CCN(c1ccc(Cl)cc1)C2 [Compound I-212, 8-(4-Chlorophenyl)-1-(tetrahydro-2H-pyran-4-yl)-6,7,8,9-tetrahydropyrazino[1,2-a]pyrazolo[3,4-d]pyrimidin-4(1H)-one]
- IC50: < 1 µM

Compound: COc1ccc(CN2CCn3c(nn4c(C5CCOC5)ncc4c3=O)C2)cc1 (racemic) [Compound I-232, (±)-7-(4-Methoxybenzyl)-3-(tetrahydrofuran-3-yl)-8,9-dihydro-6H-imidazo[5,1-f]pyrazino[2,1-c][1,2,4]triazin-11(7H)-one]
- IC50: 1 to 10 µM

Compound: COc1ccc(CN2CCn3c(nc4c(nnn4C4CCCC4)c3=O)C2)cc1 [Compound I-127, 3-Cyclopentyl-6-(4-methoxybenzyl)-5,6,7,8-tetrahydropyrazino[1,2-a][1,2,3]triazolo[4,5-d]pyrimidin-10(3H)-one]
- IC50: > 10 µM

Compound: CC1Cn2c(nc3c(cnn3C(C)C)c2=O)CN1C (racemic) [Compound I-104, (±)-1-Isopropyl-7,8-dimethyl-6,7,8,9-tetrahydropyrazino[1,2-a]pyrazolo[3,4-d]pyrimidin-4(1H)-one]
- IC50: > 10 µM

The remaining lines, values ahead:

- IC50: < 1 µM
Compound: CC(C)n1ncc2c(=O)n3c(nc21)CN(c1ccc(C#N)cc1)CC3 [Compound I-237, 4-(1-Isopropyl-4-oxo-6,7-dihydropyrazino[1,2-a]pyrazolo[3,4-d]pyrimidin-8(1H,4H,9H)-yl)benzonitrile]

- IC50: < 1 µM
Compound: CC1Cn2c(nc3c(cnn3C3CCCC3)c2=O)CN1Cc1ccc(Cl)cc1 (racemic) [Compound I-119, (±)-8-(4-Chlorobenzyl)-1-cyclopentyl-7-methyl-6,7,8,9-tetrahydropyrazino[1,2-a]pyrazolo[3,4-d]pyrimidin-4(1H)-one]

- IC50: < 1 µM
Compound: O=c1c2nnc(C3CCCC3)n2nc2n1CCN(Cc1ccc(Cl)cc1)C2 [Compound I-132, 7-(4-Chlorobenzyl)-3-cyclopentyl-8,9-dihydro-6H-pyrazino[2,1-c][1,2,4]triazolo[3,4-f][1,2,4]triazin-11(7H)-one]

- IC50: < 1 µM
Compound: CC(C)c1ncc2c(=O)n3c(nn12)CN(c1ccc(Cl)cn1)CC3 [Compound I-242, 7-(5-Chloropyridin-2-yl)-3-isopropyl-8,9-dihydro-6H-imidazo[5,1-f]pyrazino[2,1-c][1,2,4]triazin-11(7H)-one]

- IC50: < 1 µM
Compound: COc1cncc(N2CCn3c(nc4c(cnn4C(C)C)c3=O)C2)c1 [Compound I-144, 1-Isopropyl-8-(5-methoxypyridin-3-yl)-6,7,8,9-tetrahydropyrazino[1,2-a]pyrazolo[3,4-d]pyrimidin-4(1H)-one]

- IC50: < 1 µM
Compound: COc1ccc(CN2CCn3c(nn4c(C5CCCC5)ncc4c3=O)C2)cc1 [Compound I-133, 3-Cyclopentyl-7-(4-methoxybenzyl)-8,9-dihydro-6H-imidazo[5,1-f]pyrazino[2,1-c][1,2,4]triazin-11(7H)-one]

- IC50: < 1 µM
Compound: CC(C)n1ncc2c(=O)n3c(nc21)CN(c1ccc(Cl)c(Cl)c1)CC3 [Compound I-171, 8-(3,4-Dichlorophenyl)-1-isopropyl-6,7,8,9-tetrahydropyrazino[1,2-a]pyrazolo[3,4-d]pyrimidin-4(1H)-one]

- IC50: < 1 µM
Compound: COc1cccc(N2CCn3c(nc4c(cnn4C4CCCC4)c3=O)C2)c1 [Compound I-98, 1-Cyclopentyl-8-(3-methoxyphenyl)-6,7,8,9-tetrahydropyrazino[1,2-a]pyrazolo[3,4-d]pyrimidin-4(1H)-one]

- IC50: < 1 µM
Compound: O=c1c2cnc(C3CCCC3)n2nc2n1CCN(c1ccc(Cl)cc1)C2 [Compound I-182, 7-(4-Chlorophenyl)-3-cyclopentyl-8,9-dihydro-6H-imidazo[5,1-f]pyrazino[2,1-c][1,2,4]triazin-11(7H)-one]

- IC50: < 1 µM
Compound: O=c1c2cnc(C3CCCC3)n2nc2n1CCN(Cc1cnccn1)C2 [Compound I-205, 3-Cyclopentyl-7-(pyrazin-2-ylmethyl)-8,9-dihydro-6H-imidazo[5,1-f]pyrazino[2,1-c][1,2,4]triazin-11(7H)-one]

- IC50: < 1 µM
Compound: CC(C)n1ncc2c(=O)n3c(nc21)CN(Cc1ccc(Cl)cc1)CC3 [Compound I-73, 8-(4-Chlorobenzyl)-1-isopropyl-6,7,8,9-tetrahydropyrazino[1,2-a]pyrazolo[3,4-d]pyrimidin-4(1H)-one]
